Laboratory results published in ChEMBL document CHEMBL3421587, “Discovery of novel small-molecule antagonists for GluK2” (Bioorg Med Chem Lett, 2015).
The source made the active and inactive calls. The calls are words filed in the database; no cut-off is given here.

What was measured:
Format in all cases: cell-based
[1] = molecular target: Glutamate receptor ionotropic, kainate 2 (Homo sapiens) (UniProt Q13002); assay: Antagonist activity at GluK2 (unknown origin) transfected in HEK293 cells assessed as inhibition of L-glutamate-induced peak current responses at 1 mM compound added in background solution by electrophysiological analysis relative to control
[2] = molecular target: Glutamate receptor ionotropic, kainate 2 (Homo sapiens) (UniProt Q13002); assay: Agonist activity at GluK2 (unknown origin) transfected in HEK293 cells assessed as current responses at 1 mM by electrophysiological analysis
[3] = molecular target: Glutamate receptor ionotropic, kainate 2 (Homo sapiens) (UniProt Q13002); assay: Antagonist activity at GluK2 (unknown origin) transfected in HEK293 cells assessed as inhibition of L-glutamate-induced peak current response at 1 mM compound added in background and L-glutamate solution by electrophysiological analysis relative to control

Chain of Glutamate receptor ionotropic, kainate 2 (Homo sapiens) (Q13002 whole entry): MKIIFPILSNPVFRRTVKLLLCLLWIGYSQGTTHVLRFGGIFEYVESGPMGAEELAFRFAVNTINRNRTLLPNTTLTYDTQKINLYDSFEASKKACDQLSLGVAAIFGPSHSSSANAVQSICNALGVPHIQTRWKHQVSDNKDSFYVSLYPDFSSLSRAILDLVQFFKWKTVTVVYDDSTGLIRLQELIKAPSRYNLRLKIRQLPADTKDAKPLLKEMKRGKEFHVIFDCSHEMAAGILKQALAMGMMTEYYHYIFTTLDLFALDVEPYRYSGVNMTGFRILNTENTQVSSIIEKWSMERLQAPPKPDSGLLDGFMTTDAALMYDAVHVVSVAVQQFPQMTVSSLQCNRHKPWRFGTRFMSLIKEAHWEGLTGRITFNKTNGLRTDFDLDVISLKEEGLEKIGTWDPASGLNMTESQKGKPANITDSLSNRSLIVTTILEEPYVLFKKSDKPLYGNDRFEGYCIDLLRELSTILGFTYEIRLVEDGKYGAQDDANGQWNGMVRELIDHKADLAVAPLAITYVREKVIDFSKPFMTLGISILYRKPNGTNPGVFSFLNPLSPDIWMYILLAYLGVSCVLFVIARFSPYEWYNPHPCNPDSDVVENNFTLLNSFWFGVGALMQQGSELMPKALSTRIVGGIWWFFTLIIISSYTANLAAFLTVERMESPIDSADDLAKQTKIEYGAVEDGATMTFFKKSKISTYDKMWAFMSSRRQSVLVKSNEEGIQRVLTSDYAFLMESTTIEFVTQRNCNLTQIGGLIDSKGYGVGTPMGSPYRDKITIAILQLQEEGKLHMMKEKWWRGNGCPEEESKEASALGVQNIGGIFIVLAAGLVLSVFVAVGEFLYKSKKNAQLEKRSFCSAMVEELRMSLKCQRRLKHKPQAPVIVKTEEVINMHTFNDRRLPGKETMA

inhibition [1] | Activity [2] | inhibition [3] | Structure (SMILES)
95% |  |  | CCC[C@@H](CC(=O)O)[C@H](N)C(=O)O
46% | inactive | 53% | CC[C@@H](CC(=O)O)[C@H](N)C(=O)O

More lines, now with the values behind:

Structure (SMILES) | inhibition [1] | Activity [2] | inhibition [3]
N[C@H](C(=O)O)[C@H](CC(=O)O)c1ccccc1 | inactive |  | 
CC(C)C[C@@H](CC(=O)O)[C@H](N)C(=O)O | inactive |  | 
C[C@@H](CC(=O)O)[C@H](N)C(=O)O | 38% | inactive | 
